In data set [1] the test system is Human immunodeficiency virus 2. Kind of data set: Antiviral activity against HIV2 ROD infected in human CEM-SS cells assessed as inhibition of virus-induced cytopathic effect by XTT assay. The format is functional, organism-based, ISOLATE ROD. A general note: Protection from cytopathic effect is a common read-out in antiviral testing.
A short description of data set [2]: Therapeutic index, ratio of TC50 for human CEM-SS cells to EC50 for HIV1 RF infected in human CEM-SS cells. The format is cell-based. The following applies: read-out: TI.
A short description of data set [3]: Therapeutic index, ratio of TC50 for human CEM-SS cells to EC50 for HIV2 ROD infected in human CEM-SS cells. The following applies: for TI: cem-ss; for selectivity ratio: CEM-SS cells, read-out: TI. The format is cell-based.
The target in data set [4] is Human immunodeficiency virus type 1 reverse transcriptase (Human immunodeficiency virus 1, UniProt Q72547). Kind of data set: Inhibition of wild type HIV1 reverse transcriptase assessed as 32P-labeled GMP incorporation into nascent DNA strand.
For data set [5], the target named is Human immunodeficiency virus type 1 reverse transcriptase (Human immunodeficiency virus 1, UniProt Q72547, K103N). Briefly: Inhibition of HIV1 reverse transcriptase K103N mutant assessed as 32P-labeled GMP incorporation into nascent DNA strand.
Data set [6] relates to Human immunodeficiency virus 1. Briefly: Antiviral activity against HIV1 infected in human HeLa cells expressing CD4-LTR assessed as inhibition of viral entry-related beta galactosidase expression treated for 2 hrs followed by drug wash out measured after 48 hrs by MAGI assay. As to conditions: Human immunodeficiency virus 1, HeLa. It is filed as functional, organism-based.

Data set [7] can be described thus: Cytotoxicity against human HeLa cells expressing CD4-LTR by XTT assay. The format is cell-based. The following applies: read-out: TC50 (the source's name).
Data set [8] in a line: Therapeutic index, ratio of TC50 human HeLa cells expressing CD4-LTR to EC50 for HIV1 entry inhibition in human HeLa cells expressing CD4-LTR. As to conditions: read-out: TI. It is filed as cell-based.
In data set [9] the test system is Human immunodeficiency virus 1. Kind of data set: Antiviral activity against HIV1 infected in human CEM-SS cells assessed as inhibition of viral replication and virus-induced cytopathic effect by dose-response curve analysis. As to conditions: Human immunodeficiency virus 1, CEM-SS. The format is functional.
Data set [10] deals with Human immunodeficiency virus 2. Kind of data set: Inhibition of HIV2 reverse transcriptase.
For data set [11], the system named is Human immunodeficiency virus 2. Kind of data set: Antiviral activity against HIV2 assessed as inhibition of viral single round replication at early time point. It is filed as functional, organism-based.
Data set [12] deals with Human immunodeficiency virus 2. Kind of data set: Antiviral activity against HIV2 assessed as inhibition of viral replication treated at time points after viral entry into host cells. The format is functional, organism-based.
The subject of data set [13] is Human immunodeficiency virus 2. Briefly: Inhibition of HIV2 reverse transcriptase assessed as 32P-labeled GMP incorporation into nascent DNA strand at highest concentration.
The test system of data set [14] is Human immunodeficiency virus 1. Kind of data set: Antiviral activity against HIV1 RF infected in human CEM-SS cells assessed as inhibition of virus-induced cytopathic effect by XTT assay. It is filed as functional, organism-based. The following applies: Human immunodeficiency virus 1, RF.
Data set [15] can be described thus: Cytotoxicity against human CEM-SS cells by XTT assay. It is filed as cell-based. The following applies: read-out: TC50 (the source's name). (In general: Tetrazolium dyes change colour on reduction, which living cells bring about.)
[16] abbreviates: Human immunodeficiency virus 2, ISOLATE ROD, CEM-SS, read-out: EC50.

The structures appear in SMILES notation. Active and inactive are the calls of the source. Where only a bound is given, the exact number is not on record here.

With `Cc1cc(C)cc(C(=O)c2c(C(C)C)c(=O)[nH]c(=O)n2CCC2=CCCC2)c1`, the half-maximal effective concentration (EC50) entry in data set [1] (cem-ss) was “Not Active”; in data set [6], 0.03 µM; in data set [14], 0.053 µM. The selectivity ratio is 750 in data set [2] and 1040 in data set [8]. Besides, the TI entry in data set [3] is “Not Active”. Besides, the results for the IC50 in data set [4] and in [5] were 0.223 µM and 230 µM, respectively. Moreover, the CC50 in [7] is 29.4 µM; in [15], 19.2 µM. In data set [9], the EC99 was 1 µM. For the same molecule, the result in data set [10], in [12] and in data set [13] was inactive. Also, the result in [11] was Active.

With `Cc1cc(C)cc(Oc2c(C(C)C)c(=O)[nH]c(=O)n2CCC2CCCC2)c1`, the EC50 result is “Not Active” in data set [1] (cem-ss), 0.02 µM in data set [6] and 0.05 µM in data set [14]. The selectivity ratio in data set [2] worked out at 145; in data set [8], 675. In data set [3], the TI entry was “Not Active”. Also, the IC50 was 0.234 µM in [4] and 16.2 µM in [5]. For the same molecule, the results for the CC50 in data set [7] and in data set [15] were 12.7 µM and 7.8 µM, respectively. The concentration for an effect of 99% (EC99) in [9] stood at 1 µM. In addition, the result in data set [10], in data set [12] and in [13] was inactive. Also, the outcome in [11] was Active.

As to `Cc1cc(C)cc(C(=O)c2c(C(C)C)c(=O)[nH]c(=O)n2CCC2CC=CC2)c1`, the EC50 in [1] (setting [16]) worked out at 0.6 µM; in [6] it was 0.82 µM; in data set [14], 0.015 µM. The selectivity ratio amounted to 2390 in [2], 23 in data set [3] and 30 in [8]. Besides, the IC50 was determined as 0.011 µM in [4] and 1.7 µM in [5]. Moreover, the CC50 in [7] is 24.9 µM; in data set [15] it was 13.9 µM. The 99% effect concentration (EC99) in [9] is 1 µM. Besides, the result in data set [10], in [12] and in data set [13] was inactive. Further, the result in data set [11] was Active.

On to `CCc1c(Sc2cc(C)cc(C)c2)n(CCC2C=CCC2)c(=O)[nH]c1=O` (stereo not given), for which the EC50 in [1] (setting [16]) came out at 0.6 µM; in data set [6] it was 0.03 µM; in [14], 0.01 µM. The selectivity ratio in data set [2] worked out at 641; in data set [3], 10; in data set [8] it was 192. For the same molecule, the IC50 was 0.128 µM in [4] and > 270 µM in data set [5]. Also, the CC50 in data set [7] came out at 6.25 µM; in data set [15], 5.7 µM. The 99% effect concentration (EC99) in [9] is 1 µM. In addition, the result in [10], in data set [12] and in [13] was inactive. The result in data set [11] was Active.

As to `Cc1cc(C)cc(C(=O)c2c(C(C)C)c(=O)[nH]c(=O)n2CCC2C=CCC2)c1` (stereo not given), the values for the concentration giving a half-maximal response (EC50) in data set [1] (setting [16]), in data set [6] and in data set [14] were 0.2 µM, 0.05 µM and 0.0026 µM, respectively. For the same molecule, the figures for the selectivity ratio in data set [2], in data set [3] and in data set [8] were 8940, 65 and 341, respectively. In addition, the IC50 in data set [4] came out at 0.023 µM; in data set [5] it was 5.5 µM. The values for the CC50 in data set [7] and in [15] were 18.3 µM and 13.7 µM, respectively. Further, in data set [9], the EC99 amounted to 1 µM. The outcome in [10], in data set [12] and in [13] was inactive. The result in data set [11] was Active.

As to `CCc1c(Oc2ccccc2)n(CC2CC=CC2)c(=O)[nH]c1=O`, the EC50 in data set [1] (setting [16]) was 32 µM; in [6], 0.15 µM; in data set [14], 0.61 µM. Further, the selectivity ratio in data set [2] amounted to 127; in [3], 2.4; in [8] it was 527. Besides, the IC50 turned out to be 2.62 µM in data set [4] and 48.3 µM in [5]. Moreover, the CC50 in data set [7] came to 76.9 µM; in [15] it was 76.2 µM. The EC99 in [9] came out at 1 µM. Moreover, the outcome in data set [10], in data set [12] and in data set [13] was inactive. Further, the result in data set [11] was Active.

`CCc1c(Oc2cc(C)cc(C)c2)n(CC2CCCCC2)c(=O)[nH]c1=O`: the figures for the EC50 in data set [1] (setting [16]), in data set [6] and in data set [14] were 5.1 µM, 0.23 µM and 0.028 µM, respectively. The selectivity ratio in data set [2] was found to be 5140; in data set [3], 28.6; in [8], 555. For the same molecule, the half-inhibitory concentration (IC50) was determined as 0.132 µM in data set [4] and 1.9 µM in data set [5]. Moreover, the figures for the CC50 in data set [7] and in [15] were 129 µM and 114 µM, respectively. Besides, the EC99 in [9] was found to be 1 µM. Also, the outcome in [10], in [12] and in data set [13] was inactive. For the same molecule, the outcome in [11] was Active.

In the case of `Cc1cc(C)cc(Sc2c(C(C)C)c(=O)[nH]c(=O)n2CC2CCCC2)c1`, the EC50 entry is “Not Active” in data set [1] (cem-ss), 0.27 µM in [6] and 0.011 µM in data set [14]. The selectivity ratio was found to be 1260 in data set [2] and 39 in data set [8]. Besides, the TI entry in [3] is “Not Active”. Also, the results for the IC50 in data set [4] and in data set [5] were 0.129 µM and > 268 µM, respectively. The values for the CC50 in data set [7] and in data set [15] were 10.6 µM and 7 µM, respectively. The EC99 in data set [9] is 1 µM. The result in data set [10], in data set [12] and in data set [13] was inactive. Also, the outcome in data set [11] was Active.

On to `Cc1cc(C)cc(Sc2c(C(C)C)c(=O)[nH]c(=O)n2CC2CCC2)c1`, for which the figures for the EC50 in [1] (setting [16]), in data set [6] and in data set [14] were 1.6 µM, 0.28 µM and 0.00016 µM, respectively. The selectivity ratio was 9290 in data set [2], 3.9 in [3] and 37 in data set [8]. Besides, the IC50 in [4] came out at 0.02 µM; in [5], 182 µM. Further, the results for the CC50 in [7] and in data set [15] were 10.4 µM and 6.1 µM, respectively. Moreover, the EC99 in data set [9] came out at 1 µM. The outcome in data set [10], in [12] and in data set [13] was inactive. For the same molecule, the outcome in [11] was Active.

On to `CCc1c(Sc2cc(C)cc(C)c2)n(CC2=CCCC2)c(=O)[nH]c1=O`, for which the results for the EC50 in data set [1] (setting [16]), in data set [6] and in data set [14] were 2 µM, 0.009 µM and 0.056 µM, respectively. Moreover, the selectivity ratio in [2] stood at 15800; in data set [3], 451; in [8] it was 104000. For the same molecule, the IC50 stood at 0.138 µM in [4] and 66.8 µM in data set [5]. Also, the CC50 in data set [7] and in data set [15] was 887 µM throughout. Moreover, the EC99 in data set [9] stood at 1 µM. In addition, the result in data set [10], in data set [12] and in data set [13] was inactive. Besides, in [11], the outcome was Active.

With `Cc1cc(C)cc(C(=O)c2c(C(C)C)c(=O)[nH]c(=O)n2CC2CCC2)c1`, the EC50 in data set [1] (setting [16]) came to 0.4 µM; in data set [6], 0.06 µM; in data set [14] it was 0.012 µM. Further, the selectivity ratio amounted to 2870 in [2], 86.4 in [3] and 606 in [8]. The values for the IC50 in data set [4] and in [5] were 0.068 µM and 1.81 µM, respectively. For the same molecule, the CC50 in [7] and in data set [15] was 34.2 µM throughout. Also, in data set [9], the EC99 was 1 µM. For the same molecule, the result in data set [10], in [12] and in data set [13] was inactive. Also, in data set [11], the result was Active.

On to `CCc1c(Sc2cc(C)cc(C)c2)n(CC2CC=CC2)c(=O)[nH]c1=O`, for which the EC50 amounted to 0.5 µM in data set [1] (setting [16]), 0.26 µM in [6] and 0.0066 µM in data set [14]. Also, the values for the selectivity ratio in [2], in [3] and in data set [8] were 9060, 38.2 and 148, respectively. Besides, the values for the IC50 in [4] and in data set [5] were 0.21 µM and 2.4 µM, respectively. Further, the CC50 in data set [7] turned out to be 38.9 µM; in data set [15], 18.3 µM. In addition, the EC99 in data set [9] was found to be 1 µM. The result in [10], in data set [12] and in data set [13] was inactive. In addition, the result in data set [11] was Active.

By EC50 is commonly meant the concentration that produces a half-maximal response. Broadly, the IC50 is the concentration that inhibits the measured activity by half. Broadly, the EC99 is the concentration needed for an effect of 99%.

These data come from ChEMBL document CHEMBL1152465, “Comparative evaluation of the inhibitory activities of a series of pyrimidinedione congeners that inhibit human immunodeficiency virus types 1 and 2” (Antimicrob Agents Chemother, 2008).
